Here are results for 14 molecules from ChEMBL document CHEMBL3769368, “Semi-synthesis and anti-tumor evaluation of novel 25-hydroxyprotopanaxadiol derivatives as apoptosis inducing agents” (Medchemcomm, 2015).

A word on the pIC50: it is the negative decadic logarithm of the IC50, by convention in mol/L.

The test system of assay [1] is DU-145. Nature of the assay: Induction of cell cycle arrest in human DU145 cells assessed as accumulation at Sub G1 phase at 20 uM after 3 hrs by propidium iodide staining-based flow cytometry (reference value: 1.57 to 1.59%). The class given is functional. Background: Flow cytometry measures light scatter and fluorescence of single cells or particles in a stream.

Assay [2] in a line: Antiproliferative activity against human DU145 cells after 48 hrs by MTT assay. Format: functional, cell-based. As to conditions: DU-145, 48 h. (Formazan colour is commonly taken as a measure of viable cells.)
The test system of assay [3] is DU-145. The experiment in a line: Induction of cell cycle arrest in human DU145 cells assessed as accumulation at Sub G1 phase at 20 uM after 12 hrs by propidium iodide staining-based flow cytometry (reference value: 1.57 to 1.59%). The class given is functional.
Assay [4] relates to DU-145. Nature of the assay: Induction of apoptosis in human DU145 cells assessed as chromatin nucleus condensation at 20 uM after 12 hrs by DAPI staining-based fluorescence microscopy. Format: functional, cell-based.
For another assay, the system named is MDA-MB-231. The experiment in a line: Antiproliferative activity against human MDA-MB-231 cells after 48 hrs by MTT assay. Conditions: MDA-MB-231, 48 h. Format: functional, cell-based.
The nature of assay [5]: Antiproliferative activity against human PC3 cells after 48 hrs by MTT assay. The class given is functional, cell-based. As to conditions: PC-3, 48 h.
Assay [6] concerns DU-145. The experiment in a line: Induction of morphological changes in human DU145 cells assessed as formation of bubble-shaped regions at 20 uM after 12 hrs by inverted microscopy. Format: functional, cell-based.
Assay [7] concerns DU-145. Nature of the assay: Induction of morphological changes in human DU145 cells assessed as decrease in cell size at 20 uM after 12 hrs by inverted microscopy. The class given is functional, cell-based.
Assay [8] is described as follows: Antiproliferative activity against human BGC823 cells after 48 hrs by MTT assay. The class given is functional, cell-based. Conditions: BGC-823, 48 h.
Assay [9] in a line: Cytotoxicity against human IOSE-144 cells after 48 hrs by MTT assay. Format: cell-based. As to conditions: IOSE-144, 48 h.
Assay [10] relates to DU-145. The experiment in a line: Induction of cell cycle arrest in human DU145 cells assessed as accumulation at Sub G1 phase at 20 uM after 6 hrs by propidium iodide staining-based flow cytometry (reference value: 1.57 to 1.59%). The class given is functional.
The test system of assay [11] is DU-145. Nature of the assay: Induction of apoptosis in human DU145 cells assessed as formation of apoptotic bodies at 20 uM after 12 hrs by DAPI staining-based fluorescence microscopy. The class given is functional, cell-based.
Assay [12] in a line: Antiproliferative activity against human alpha-2 cells after 48 hrs by MTT assay. Format: functional, cell-based.
The test system of assay [13] is DU-145. Nature of the assay: Induction of morphological changes in human DU145 cells assessed as spherical cells at 20 uM after 12 hrs by inverted microscopy. Format: functional, cell-based.
In assay [14] the test system is DU-145. The experiment in a line: Induction of cell cycle arrest in human DU145 cells assessed as accumulation at Sub G1 phase at 20 uM after 18 hrs by propidium iodide staining-based flow cytometry (reference value: 1.57 to 1.59%). The class given is functional.

pIC50: −log10 of the molar value. The source made the active and inactive calls. The calls are words filed in the database; no cut-off is given here. Bounds are passed on as bounds.

In the case of `CC(C)(O)CCC[C@@](C)(O)[C@H]1CC[C@]2(C)[C@@H]1[C@H](O)C[C@@H]1[C@@]3(C)CC[C@H](OC(=O)[C@@H](N)CCCNC(=N)N)C(C)(C)[C@@H]3CC[C@]12C`, the values for the Activity in the assay with DU-145 [1], with DU-145 [3] and in the assay on DU-145 [10] were 7.37%, 34.07% and 16.29%, respectively. Also, the pIC50 in assay [2] was 5.26; in the assay with MDA-MB-231, 5.38; in assay [5], 5.21; in assay [8], 5.34; in [9] it was below 4.00; in assay [12], 5.15. Further, the result in the assay on DU-145 [4], with DU-145 [6], with DU-145 [7], in the assay on DU-145 [11] and with DU-145 [13] was Active.

In the case of `CC(C)(O)CCC[C@@](C)(O)[C@H]1CC[C@]2(C)[C@@H]1[C@H](O)C[C@@H]1[C@@]3(C)CC[C@H](OC(=O)[C@@H](N)CCC(=O)O)C(C)(C)[C@@H]3CC[C@]12C`, the pIC50 in assay [2] is 5.19; in the assay with MDA-MB-231 it was 5.38; in [5] it was 5.00; in assay [8] it was 5.16; in [9] it was below 4.00; in assay [12], 5.21. The Activity is on record as 13.39% with DU-145 [3], 9.81% in the assay with DU-145 [10] and 30.53% with DU-145 [14]. Further, the result in the assay on DU-145 [4], in the assay with DU-145 [6], in the assay with DU-145 [7], in the assay with DU-145 [11] and in the assay with DU-145 [13] was Active.

For the molecule `CC(C)(O)CCC[C@@](C)(O)[C@H]1CC[C@]2(C)[C@@H]1[C@H](OC(=O)[C@H](CCC(=O)OCc1ccccc1)NC(=O)OC(C)(C)C)C[C@@H]1[C@@]3(C)CC[C@H](O)C(C)(C)[C@@H]3CC[C@]12C`, the pIC50 in assay [2] was below 4.00; in the assay on MDA-MB-231, 4.10; in [5], below 4.00; in assay [8], below 4.00; in assay [9], below 4.00; in assay [12] it was 4.07.

As for `C[C@H](NC(=O)OC(C)(C)C)C(=O)O[C@@H]1C[C@@H]2[C@@]3(C)CC[C@H](O)C(C)(C)[C@@H]3CC[C@@]2(C)[C@]2(C)CC[C@H]([C@](C)(O)CCCC(C)(C)O)[C@@H]12`, the pIC50 in assay [2] was below 4.00; in the assay with MDA-MB-231 it was 4.34; in [5], 4.31; in assay [8] it was 4.40; in assay [9], below 4.00; in [12] it was 4.47.

On to `C[C@H](N)C(=O)O[C@@H]1C[C@@H]2[C@@]3(C)CC[C@H](O)C(C)(C)[C@@H]3CC[C@@]2(C)[C@]2(C)CC[C@H]([C@](C)(O)CCCC(C)(C)O)[C@@H]12`, for which the pIC50 in assay [2] is 4.85; in the assay with MDA-MB-231, 5.24; in [5] it was 5.06; in assay [8] it was 5.05; in assay [9] it was below 4.00; in [12], 5.04.

For `CC[C@H](C)[C@H](N)C(=O)O[C@H]1CC[C@]2(C)[C@H]3C[C@@H](O)[C@@H]4[C@@H]([C@](C)(O)CCCC(C)(C)O)CC[C@@]4(C)[C@]3(C)CC[C@H]2C1(C)C`, the pIC50 in assay [2] was 4.85; in the assay on MDA-MB-231, 5.19; in assay [5], 5.08; in assay [8], 5.00; in assay [9] it was below 4.00; in assay [12], 4.77.

For the molecule `CC(C)C[C@H](NC(=O)OC(C)(C)C)C(=O)O[C@@H]1C[C@@H]2[C@@]3(C)CC[C@H](O)C(C)(C)[C@@H]3CC[C@@]2(C)[C@]2(C)CC[C@H]([C@](C)(O)CCCC(C)(C)O)[C@@H]12`, the pIC50 is below 4.00 in assay [2]; below 4.00 in the assay on MDA-MB-231; below 4.00 in assay [5]; below 4.00 in assay [8]; below 4.00 in assay [9]; 4.07 in assay [12].

Consider `CC(C)(O)CCC[C@@](C)(O)[C@H]1CC[C@]2(C)[C@@H]1[C@H](O)C[C@@H]1[C@@]3(C)CC[C@H](O)C(C)(C)[C@@H]3CC[C@]12C`, for which the pIC50 in assay [2] is 4.28; with MDA-MB-231, 4.48; in assay [5], 4.24; in [8], 4.34; in assay [9] it was below 4.00; in assay [12] it was 4.32.

For `CC(C)C[C@H](N)C(=O)O[C@H]1CC[C@]2(C)[C@H]3C[C@@H](O)[C@@H]4[C@@H]([C@](C)(O)CCCC(C)(C)O)CC[C@@]4(C)[C@]3(C)CC[C@H]2C1(C)C`, the pIC50 in assay [2] is 5.12; with MDA-MB-231, 5.32; in assay [5] it was 5.10; in [8] it was 5.05; in [9], below 4.00; in assay [12], 4.80.

Turning to `CC(C)C[C@H](NC(=O)OC(C)(C)C)C(=O)O[C@H]1CC[C@]2(C)[C@H]3C[C@@H](OC(=O)[C@H](CC(C)C)NC(=O)OC(C)(C)C)[C@@H]4[C@@H]([C@](C)(O)CCCC(C)(C)O)CC[C@@]4(C)[C@]3(C)CC[C@H]2C1(C)C`, the pIC50 was below 4.00 in assay [2]; below 4.00 in the assay with MDA-MB-231; below 4.00 in assay [5]; below 4.00 in assay [8]; below 4.00 in [9]; 4.14 in assay [12].

As for `CC(C)(O)CCC[C@@](C)(O)[C@H]1CC[C@]2(C)[C@@H]1[C@H](OC(=O)[C@H](Cc1cnc[nH]1)NC(=O)OC(C)(C)C)C[C@@H]1[C@@]3(C)CC[C@H](O)C(C)(C)[C@@H]3CC[C@]12C`, the pIC50 was below 4.00 in assay [2]; 4.64 in the assay with MDA-MB-231; 4.07 in [5]; 4.42 in assay [8]; below 4.00 in assay [9]; 4.14 in [12].

Consider `CC(C)C[C@H](NC(=O)OC(C)(C)C)C(=O)O[C@H]1CC[C@]2(C)[C@H]3C[C@@H](O)[C@@H]4[C@@H]([C@](C)(O)CCCC(C)(C)O)CC[C@@]4(C)[C@]3(C)CC[C@H]2C1(C)C`, for which the pIC50 in [2] is 4.59; in the assay with MDA-MB-231 it was 4.77; in [5], 4.39; in assay [8] it was 4.62; in assay [9] it was below 4.00; in assay [12], 4.49.

Consider `O=c1[nH]cc(F)c(=O)[nH]1` [FLUOROURACIL], for which the pIC50 is 4.42 in assay [2]; 4.70 in the assay on MDA-MB-231; 4.34 in assay [5]; 4.43 in assay [8]; 4.54 in assay [9]; 4.48 in [12].

Take `CC(C)(O)CCC[C@@](C)(O)[C@H]1CC[C@]2(C)[C@@H]1[C@H](O)C[C@@H]1[C@@]3(C)CC[C@H](OC(=O)[C@H](Cc4cnc[nH]4)NC(=O)OC(C)(C)C)C(C)(C)[C@@H]3CC[C@]12C`: the pIC50 in [2] is 4.68; with MDA-MB-231, 4.77; in assay [5], 4.55; in [8] it was 4.57; in [9], below 4.00; in assay [12], 4.70.
